The values below are quoted from earlier work in US20130331575A1, “Method for resolution of 4-((1R,3S)-6-chloro-3-phenyl-indan-1-yl)-1,2,2-trimethyl-piperazine and 1-((1R,3S)-6-chloro-3-phenyl-indan-1-yl)-3,3-dimethyl-piperazine” (priority 2011, published 2013).

The target of one series is D2 (Homo sapiens, UniProt P14416). The conditions noted are these: in vitro.
For another series, the target named is D1 (Homo sapiens, UniProt P21728). The conditions noted are these: in vitro.
The next series addresses 5-HT2 (Homo sapiens, UniProt P28223).
A further series deals with D1 and D2. The conditions noted are these: in vivo.

D1, sequence (P21728 whole entry): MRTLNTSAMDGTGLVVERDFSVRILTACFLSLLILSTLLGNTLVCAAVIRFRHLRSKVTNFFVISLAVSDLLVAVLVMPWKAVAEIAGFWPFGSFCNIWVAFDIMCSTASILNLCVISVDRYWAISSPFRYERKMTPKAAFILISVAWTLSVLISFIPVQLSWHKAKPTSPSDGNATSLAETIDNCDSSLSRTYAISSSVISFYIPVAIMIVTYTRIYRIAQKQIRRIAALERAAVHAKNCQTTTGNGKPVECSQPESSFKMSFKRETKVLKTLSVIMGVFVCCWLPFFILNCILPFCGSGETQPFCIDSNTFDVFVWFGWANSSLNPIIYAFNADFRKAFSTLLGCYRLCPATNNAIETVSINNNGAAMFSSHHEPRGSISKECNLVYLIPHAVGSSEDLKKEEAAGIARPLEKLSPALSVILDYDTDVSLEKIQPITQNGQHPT
D2, sequence (P14416 whole entry): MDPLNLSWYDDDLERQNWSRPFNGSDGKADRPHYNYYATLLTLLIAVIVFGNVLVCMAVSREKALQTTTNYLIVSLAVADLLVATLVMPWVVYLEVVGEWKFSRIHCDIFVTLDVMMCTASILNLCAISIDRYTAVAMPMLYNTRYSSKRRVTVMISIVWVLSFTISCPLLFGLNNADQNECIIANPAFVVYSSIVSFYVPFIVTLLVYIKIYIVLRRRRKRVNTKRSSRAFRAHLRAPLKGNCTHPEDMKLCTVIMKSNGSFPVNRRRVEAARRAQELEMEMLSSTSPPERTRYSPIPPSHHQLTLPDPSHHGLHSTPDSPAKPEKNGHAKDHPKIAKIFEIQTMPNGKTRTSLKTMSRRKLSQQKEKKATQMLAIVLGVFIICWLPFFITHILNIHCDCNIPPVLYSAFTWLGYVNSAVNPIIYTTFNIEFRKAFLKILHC
5-HT2, sequence (P28223 whole entry, species assumed): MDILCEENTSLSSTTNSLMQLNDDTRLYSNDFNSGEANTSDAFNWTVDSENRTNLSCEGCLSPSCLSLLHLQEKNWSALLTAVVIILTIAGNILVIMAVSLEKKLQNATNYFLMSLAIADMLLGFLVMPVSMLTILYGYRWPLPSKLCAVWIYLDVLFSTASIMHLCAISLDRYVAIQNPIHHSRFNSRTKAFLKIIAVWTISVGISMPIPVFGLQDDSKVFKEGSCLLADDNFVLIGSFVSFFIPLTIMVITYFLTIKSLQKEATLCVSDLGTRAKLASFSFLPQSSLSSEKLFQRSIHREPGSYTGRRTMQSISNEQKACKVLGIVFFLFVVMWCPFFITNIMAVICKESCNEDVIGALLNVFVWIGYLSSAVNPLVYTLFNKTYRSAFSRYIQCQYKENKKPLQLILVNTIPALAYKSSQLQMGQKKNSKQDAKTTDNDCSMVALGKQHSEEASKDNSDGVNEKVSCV

For the molecule `CN1CCN([C@@H]2C[C@@H](c3ccccc3)c3ccc(Cl)cc32)CC1(C)C` [Compound (I), 4-((1R,3S)-6-chloro-3-phenyl-indan-1-yl)-1,2,2-trimethyl-piperazine], at D2, the D2 antagonist potency result is reported as “potent”. Further, at D1, the D1 antagonist potency entry was “potent” and the “D1 versus D2 selectivity” value is recorded as “some D1 selectivity”. Further, in the series on α1 adrenoceptors, the “affinity for α1 adrenoceptors” value is on record as “high affinity”. On 5-HT2, the 5-HT2 antagonist potency result was “potent 5-HT2 antagonist”. The “relative potency as D1 and D2 antagonist” value with D1 and D2 was “equipotent as D1 and D2 antagonist”.
